Where “and” joins values, the source holds several entries; their conditions need not be identical. Equal values may be shown once.
Key:
mice [1] = settings: mouse, in vivo; cited from earlier work
female Kuming mice = settings: mouse, in vivo
NMDAR [2] = settings: cited from earlier work
[3] = in vivo; cited from earlier work
Kuming mice [4] = settings: mouse, in vivo; for edematogenic response after subcutaneous peptide (in words): sc
Kuming mice [5] = assay type: in vivo, mouse; settings: for number of abdominal contortions: mouse, in vivo; for effect on writhing responses (in words): n = 8
female mice = assay type: in vivo, mouse; settings: for paw withdrawal latency as % of pre-administration values: mouse, in vivo
Kuming mice [6] = assay type: in vivo, mouse; settings: for paw biting/licking behaviors after subcutaneous peptide (in words): mouse, in vivo, sc; for first phase response of the formalin test (in words) / second phase response of the formalin test (in words): n = 8
Kuming mice [7] = settings: mouse, in vivo
mice [8] = settings: mouse, in vivo
NMDAR [9] = settings: cited from earlier work; remark: listed apart in the source

Q: With conantokin-T [con-T] as the substance, how does the “percent inhibition of responses, first phase of the formalin test” value (mice [1]) read?
A: Its value is 25-35%.

Q: What about the “Paw withdrawal latency after peptide administration, 30 min” value (shortened to “Paw withdrawal latency … 30 min”) (female Kuming mice) of the same substance?
A: Its value is 13.1 ± 3.1 s.

Q: And the “Paw withdrawal latency after peptide administration, 90 min” value (from here on “Paw withdrawal latency … 90 min”) (female Kuming mice)?
A: Its value is 15.4 ± 4.8 s.

Q: And the “Paw withdrawal latency after peptide administration, 150 min” value (shortened to “Paw withdrawal latency … 150 min”) (female Kuming mice)?
A: Its value is 16.5 ± 4.6 s.

Q: And the “Paw withdrawal latency after peptide administration, 240 min” value (“Paw withdrawal latency … 240 min” for short) (female Kuming mice)?
A: The value was 16.8 ± 4.5 s.

Q: What about the “Paw withdrawal latency before peptide administration” value (female Kuming mice) of the same substance?
A: Its value is 11.9 ± 2.9 s.

Q: And the “antinociception in the hot-plate test (in words)” value (“antinociception” below) (female Kuming mice)?
A: The value was “without effect”.

Q: And the IC50 (NMDAR [2])?
A: Its IC50 is 0.4 µM.

Q: What about the “median toxic dose, rotarod test” value [3] of the same substance?
A: The value was “ca. 300 pmol”.

Q: Which “percent inhibition of responses, first phase of the formalin test” value (mice [1]) does the source give for conantokin-G [con-G] here?
A: The value was 25-35%.

Q: What about the “Paw withdrawal latency … 30 min” value (female Kuming mice) of the same substance?
A: The value was 12.2 ± 4.5 s and 12.6 ± 12.5 s.

Q: What about the “Paw withdrawal latency before peptide administration” value (female Kuming mice) of the same substance?
A: The value was 11.6 ± 2.1 s and 11.6 ± 2.5 s.

Q: What about the IC50 (NMDAR [2]) of the same substance?
A: The IC50 was 0.48 µM.

Q: What about the “Increase in paw width” value (Kuming mice [4]) of the same substance?
A: Its value is 0.83 ± 0.03 mm.

Q: What about the “Injected paw width, after formalin injection” value (Kuming mice [4]) of the same substance?
A: The value was 2.38 ± 0.03 mm.

Q: And the “Injected paw width, before formalin injection” value (Kuming mice [4])?
A: Its value is 1.55 ± 0.02 mm.

Q: What about the “edematogenic response after subcutaneous peptide (in words)” value (Kuming mice [4]) of the same substance?
A: Its value is “nor did they reduce the edematogenic response”.

Q: What about the “number of abdominal contortions” value (Kuming mice [5]) of the same substance?
A: The value was 8.3 ± 6.0.

Q: What about the “paw withdrawal latency as % of pre-administration values” (female mice) of the same substance?
A: Its value is 80%.

Q: What about the “increase of paw withdrawal latency compared to the day 3 controls” value (female mice; n = 8) of the same substance?
A: Its value is “approximately 1 s”.

Q: What about the “paw biting/licking behaviors after subcutaneous peptide (in words)” value (Kuming mice [6]) of the same substance?
A: The value was “did not significantly diminish paw biting/licking behaviors”.

Q: And the “first phase response of the formalin test (in words)” value (shortened to “first phase response”) (Kuming mice [6])?
A: Its value is “significantly reduced the time spent responding to the afflicted paw”.

Q: What about the “second phase response of the formalin test (in words)” value (Kuming mice [6]) of the same substance?
A: Its value is “highly effective in reducing the responses to the afflicted paw”.

Q: What about the “median toxic dose, rotarod test” value [3] of the same substance?
A: Its value is “ca. 300 pmol”.

Q: Which “Paw withdrawal latency … 30 min” value (female Kuming mice) does the source give for GEγγLQγNQγLIRAKSN-NH2 [con-G[γ14A]] here?
A: Its value is 10.0 ± 3.3 s.

Q: And the “Paw withdrawal latency … 90 min” value (female Kuming mice)?
A: Its value is 20.4 ± 14.2 s.

Q: And the “Paw withdrawal latency … 150 min” value (female Kuming mice)?
A: The value was “^ˆ25.4 ± 9.3 s”.

Q: What about the “Paw withdrawal latency … 240 min” value (female Kuming mice) of the same substance?
A: Its value is “^ˆ22.8 ± 8.6 s”.

Q: What about the “Paw withdrawal latency before peptide administration” value (female Kuming mice) of the same substance?
A: Its value is 11.3 ± 1.5 s.

Q: What about the “antinociception” value (female Kuming mice) of the same substance?
A: The value was “ineffective at antinociception at all time points examined”.

Q: What about the IC50 (NMDAR [2]) of the same substance?
A: The IC50 was 0.23 µM.

Q: For GEγγLQKNQγLIRγKSN-NH2 [con-G[γ7K]], which “Paw withdrawal latency … 30 min” value (female Kuming mice) is on record?
A: The value was 11.9 ± 4.3 s and 21.5 ± 12.5 s.

Q: And the “Paw withdrawal latency before peptide administration” value (female Kuming mice)?
A: Its value is 14.9 ± 3.5 s and 15.1 ± 3.9 s.

Q: What about the IC50 (NMDAR [2]) of the same substance?
A: Its IC50 is 0.22 µM.

Q: What about the “effect on writhing responses (in words)” value (Kuming mice [5]) of the same substance?
A: The value was “failed to attenuate writhing responses”.

Q: And the “first phase response” value (Kuming mice [6])?
A: Its value is “significantly reduced the time spent responding to the afflicted paw”.

Q: With “con-G[N8A]: NR2B-selective con-G variant (GEEELQEAQELIREKSN; not fully specified; Conantokin-G; UniProt P07231 81-97, looked up, variant N8A)” as the substance, how does the “Paw withdrawal latency … 30 min” value (female Kuming mice) read?
A: The value was 11.6 ± 4.2 s.

Q: What about the “Paw withdrawal latency … 90 min” value (female Kuming mice) of the same substance?
A: Its value is 13.5 ± 4.8 s.

Q: And the “Paw withdrawal latency … 150 min” value (female Kuming mice)?
A: The value was 12.6 ± 2.5 s.

Q: What about the “Paw withdrawal latency … 240 min” value (female Kuming mice) of the same substance?
A: The value was 13.8 ± 3.1 s.

Q: And the “Paw withdrawal latency before peptide administration” value (female Kuming mice)?
A: The value was 11.1 ± 2.5 s.

Q: What about the “antinociception” value (female Kuming mice) of the same substance?
A: The value was “ineffective at antinociception at all time points examined”.

Q: What about the IC50 (NMDAR [2]) of the same substance?
A: The IC50 was 0.49 µM.

Q: What does the source list for GEγγLQγNQγLIRAKYN-NH2 [con-G[S16Y]]?
A: Paw withdrawal latency before peptide administration (female Kuming mice): 13.4 ± 3.1 s and 9.0 ± 2.1 s; antinociception in the hot-plate test (in words) (female Kuming mice): highest antinociceptive activity; IC50 (NMDAR [2]): 0.14 µM; increase in potency in the [3H]MK-801 binding assay compared to con-G (NMDAR [2]): 3.5 fold; Increase in paw width (Kuming mice [4]): 0.76 ± 0.05 mm; Injected paw width, after formalin injection (Kuming mice [4]): 2.33 ± 0.05 mm; Injected paw width, before formalin injection (Kuming mice [4]): 1.57 ± 0.03 mm; edematogenic response after subcutaneous peptide (in words) (Kuming mice [4]): nor did they reduce the edematogenic response; number of abdominal contortions (Kuming mice [5]): 6.4 ± 4.6; effect on writhing responses (in words) (Kuming mice [5]): significantly effective in modulating responses to the acid stimulus; paw withdrawal latency as % of pre-administration values (female mice): 80%; increase of paw withdrawal latency compared to the day 3 controls (female mice; n = 8): ~2 s; day 3 paw diameter after peptide injection (Kuming mice [7]): 2.26 ± 0.058 mm; day 3 paw diameter before peptide injection (Kuming mice [7]): 2.36 ± 0.039 mm; paw biting/licking behaviors after subcutaneous peptide (in words) (Kuming mice [6]): did not significantly diminish paw biting/licking behaviors; first phase response of the formalin test (in words) (Kuming mice [6]): significantly reduced the time spent responding to the afflicted paw; second phase response of the formalin test (in words) (Kuming mice [6]): highly effective in reducing the responses to the afflicted paw; motor impairment in the rotarod test, comparison of the two peptides (in words) (mice [8]): reverse effect; motor toxicity in the rotarod test relative to saline (in words) (mice [8]): some toxicity; rotarod stay time, 60 min versus 240 min test times (in words) (mice [8]): no significant differences; share of peptide associated with a low-affinity, non-receptor site (NMDAR [9]): approximately 80%

Q: Which “Paw withdrawal latency … 30 min” value (female Kuming mice) does the source give for GEγγLGKAQALIRAAYA-NH2 [Ala-con-G] here?
A: Its value is 20.3 ± 8.6 s and 11.9 ± 3.4 s.

Q: What about the “Paw withdrawal latency … 90 min” value (female Kuming mice) of the same substance?
A: Its value is 20.9 ± 5.7 s and 22.4 ± 9.5 s.

Q: And the “Paw withdrawal latency … 150 min” value (female Kuming mice)?
A: Its value is 24.6 ± 10.4 s and 17.1 ± 7.5 s.

Q: And the “Paw withdrawal latency … 240 min” value (female Kuming mice)?
A: Its value is 16.1 ± 5.0 s and 20.0 ± 16.1 s.

Q: What about the “Paw withdrawal latency before peptide administration” value (female Kuming mice) of the same substance?
A: The value was 15.3 ± 3.0 s and 11.3 ± 1.9 s.

Q: What about the “antinociception” value (female Kuming mice) of the same substance?
A: The value was “ineffective at antinociception at all time points examined”.

Q: What about the IC50 (NMDAR [2]) of the same substance?
A: The IC50 was 0.18 µM.

Q: And the “Increase in paw width” value (Kuming mice [4])?
A: Its value is 0.97 ± 0.05 mm.

Q: And the “Injected paw width, after formalin injection” value (Kuming mice [4])?
A: The value was 2.56 ± 0.05 mm.

Q: And the “Injected paw width, before formalin injection” value (Kuming mice [4])?
A: The value was 1.60 ± 0.02 mm.

Q: And the “effect on writhing responses (in words)” value (Kuming mice [5])?
A: The value was “failed to attenuate writhing responses”.

Q: And the “effect on withdrawal latencies in the CFA model (in words)” value (female mice; n = 8)?
A: The value was “failed to alter withdrawal latencies”.

Q: What about the “first phase response” value (Kuming mice [6]) of the same substance?
A: The value was “significantly reduced the time spent responding to the afflicted paw”.

Q: What about the “second phase response of the formalin test (in words)” value (Kuming mice [6]) of the same substance?
A: The value was “neither Ala-con-G nor con-R[1-17] provided antinociception”.

Q: What about the “components of binding to adult rat brain sections (in words)” value (NMDAR [9]) of the same substance?
A: Its value is “only the high-affinity NMDAR-specific component of binding”.

Reference: paper PMC2621068 (Neuropeptides, 2008)
